Assay results taken from PMC3983368 (Journal of Medicinal Chemistry, 2014).

Key:
[1] = target: T1, GluN1/GluN2C (Rattus norvegicus, UniProt P35439+Q00961)
[2] = target: T1, GluN1/GluN2C; assay: cell-based
[3] = target: GluN1/GluN2D (Rattus norvegicus, UniProt P35439+Q62645)
[4] = target: GluN1/GluN2B (Rattus norvegicus, UniProt P35439+Q00960)
[5] = target: GluN1/GluN2A (Rattus norvegicus, UniProt P35439+Q00959)
Sequence of GluN1/GluN2A (Q00959 23-1464, other chains not shown): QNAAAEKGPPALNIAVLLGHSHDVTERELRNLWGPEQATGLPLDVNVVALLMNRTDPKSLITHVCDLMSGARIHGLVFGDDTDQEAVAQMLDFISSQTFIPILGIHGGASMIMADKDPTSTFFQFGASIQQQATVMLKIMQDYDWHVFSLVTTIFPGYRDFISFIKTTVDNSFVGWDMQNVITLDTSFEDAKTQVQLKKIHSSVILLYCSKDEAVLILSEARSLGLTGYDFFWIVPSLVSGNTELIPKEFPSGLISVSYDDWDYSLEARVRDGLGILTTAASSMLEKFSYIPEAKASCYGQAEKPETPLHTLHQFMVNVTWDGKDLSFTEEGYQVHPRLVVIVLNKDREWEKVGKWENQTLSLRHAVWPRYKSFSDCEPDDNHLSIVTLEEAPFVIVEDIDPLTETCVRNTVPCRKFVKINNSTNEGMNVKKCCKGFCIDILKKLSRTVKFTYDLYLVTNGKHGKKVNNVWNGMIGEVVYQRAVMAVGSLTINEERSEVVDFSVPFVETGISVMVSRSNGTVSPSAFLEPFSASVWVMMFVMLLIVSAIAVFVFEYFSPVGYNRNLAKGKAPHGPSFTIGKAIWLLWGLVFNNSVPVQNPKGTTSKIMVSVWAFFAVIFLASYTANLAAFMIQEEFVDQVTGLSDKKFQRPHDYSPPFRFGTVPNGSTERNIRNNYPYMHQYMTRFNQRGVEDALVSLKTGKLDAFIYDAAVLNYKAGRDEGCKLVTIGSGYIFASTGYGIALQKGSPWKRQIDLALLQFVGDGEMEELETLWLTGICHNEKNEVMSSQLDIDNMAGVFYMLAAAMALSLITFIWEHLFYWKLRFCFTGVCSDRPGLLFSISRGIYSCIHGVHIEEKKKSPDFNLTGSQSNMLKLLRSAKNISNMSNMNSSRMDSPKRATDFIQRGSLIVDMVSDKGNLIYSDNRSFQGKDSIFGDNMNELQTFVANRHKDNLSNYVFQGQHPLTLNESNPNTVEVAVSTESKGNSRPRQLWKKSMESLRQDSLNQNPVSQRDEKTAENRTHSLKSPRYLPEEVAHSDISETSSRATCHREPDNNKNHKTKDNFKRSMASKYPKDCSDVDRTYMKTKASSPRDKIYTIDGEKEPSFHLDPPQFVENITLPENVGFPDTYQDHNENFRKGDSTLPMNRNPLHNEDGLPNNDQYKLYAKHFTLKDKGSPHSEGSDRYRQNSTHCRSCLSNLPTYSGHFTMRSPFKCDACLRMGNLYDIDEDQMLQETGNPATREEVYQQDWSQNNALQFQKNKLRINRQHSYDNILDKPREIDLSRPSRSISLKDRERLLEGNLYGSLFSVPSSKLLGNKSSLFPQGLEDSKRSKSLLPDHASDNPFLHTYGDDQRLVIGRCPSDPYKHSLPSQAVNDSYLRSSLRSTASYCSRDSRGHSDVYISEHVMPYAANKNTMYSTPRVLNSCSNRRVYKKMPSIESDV

T1 sequence (Q00961 20-1237, other chains not shown): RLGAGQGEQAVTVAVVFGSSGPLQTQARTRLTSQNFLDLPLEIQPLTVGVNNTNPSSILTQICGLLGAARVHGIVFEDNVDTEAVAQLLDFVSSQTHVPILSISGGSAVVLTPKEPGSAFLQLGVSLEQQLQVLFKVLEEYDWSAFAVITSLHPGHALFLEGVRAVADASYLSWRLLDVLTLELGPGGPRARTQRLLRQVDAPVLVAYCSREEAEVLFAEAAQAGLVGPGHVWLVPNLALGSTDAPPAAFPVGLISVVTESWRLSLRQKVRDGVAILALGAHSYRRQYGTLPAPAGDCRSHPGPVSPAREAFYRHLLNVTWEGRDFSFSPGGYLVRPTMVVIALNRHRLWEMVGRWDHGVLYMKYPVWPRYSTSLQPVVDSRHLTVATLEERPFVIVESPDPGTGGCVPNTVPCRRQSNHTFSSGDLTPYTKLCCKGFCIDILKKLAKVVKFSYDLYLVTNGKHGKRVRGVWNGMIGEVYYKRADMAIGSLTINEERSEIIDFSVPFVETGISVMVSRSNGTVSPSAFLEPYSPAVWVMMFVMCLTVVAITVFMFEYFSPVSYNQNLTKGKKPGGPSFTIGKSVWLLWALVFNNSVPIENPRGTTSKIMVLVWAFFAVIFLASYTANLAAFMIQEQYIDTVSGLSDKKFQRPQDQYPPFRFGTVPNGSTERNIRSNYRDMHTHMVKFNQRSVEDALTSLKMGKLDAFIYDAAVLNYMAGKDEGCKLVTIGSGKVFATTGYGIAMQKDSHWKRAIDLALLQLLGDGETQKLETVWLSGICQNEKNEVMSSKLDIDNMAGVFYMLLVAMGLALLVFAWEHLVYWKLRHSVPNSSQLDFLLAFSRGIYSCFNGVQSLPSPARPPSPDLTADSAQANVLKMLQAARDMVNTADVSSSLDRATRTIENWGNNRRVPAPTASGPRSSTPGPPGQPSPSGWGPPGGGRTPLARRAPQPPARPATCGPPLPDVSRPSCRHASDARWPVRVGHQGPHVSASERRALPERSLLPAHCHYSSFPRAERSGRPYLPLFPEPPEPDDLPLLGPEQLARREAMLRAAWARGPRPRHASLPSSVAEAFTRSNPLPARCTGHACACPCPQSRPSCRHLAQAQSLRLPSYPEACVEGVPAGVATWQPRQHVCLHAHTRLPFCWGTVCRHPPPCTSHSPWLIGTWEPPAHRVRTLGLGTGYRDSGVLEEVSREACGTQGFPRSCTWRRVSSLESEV
Sequence of GluN1/GluN2B (Q00960 27-1482, other chains not shown): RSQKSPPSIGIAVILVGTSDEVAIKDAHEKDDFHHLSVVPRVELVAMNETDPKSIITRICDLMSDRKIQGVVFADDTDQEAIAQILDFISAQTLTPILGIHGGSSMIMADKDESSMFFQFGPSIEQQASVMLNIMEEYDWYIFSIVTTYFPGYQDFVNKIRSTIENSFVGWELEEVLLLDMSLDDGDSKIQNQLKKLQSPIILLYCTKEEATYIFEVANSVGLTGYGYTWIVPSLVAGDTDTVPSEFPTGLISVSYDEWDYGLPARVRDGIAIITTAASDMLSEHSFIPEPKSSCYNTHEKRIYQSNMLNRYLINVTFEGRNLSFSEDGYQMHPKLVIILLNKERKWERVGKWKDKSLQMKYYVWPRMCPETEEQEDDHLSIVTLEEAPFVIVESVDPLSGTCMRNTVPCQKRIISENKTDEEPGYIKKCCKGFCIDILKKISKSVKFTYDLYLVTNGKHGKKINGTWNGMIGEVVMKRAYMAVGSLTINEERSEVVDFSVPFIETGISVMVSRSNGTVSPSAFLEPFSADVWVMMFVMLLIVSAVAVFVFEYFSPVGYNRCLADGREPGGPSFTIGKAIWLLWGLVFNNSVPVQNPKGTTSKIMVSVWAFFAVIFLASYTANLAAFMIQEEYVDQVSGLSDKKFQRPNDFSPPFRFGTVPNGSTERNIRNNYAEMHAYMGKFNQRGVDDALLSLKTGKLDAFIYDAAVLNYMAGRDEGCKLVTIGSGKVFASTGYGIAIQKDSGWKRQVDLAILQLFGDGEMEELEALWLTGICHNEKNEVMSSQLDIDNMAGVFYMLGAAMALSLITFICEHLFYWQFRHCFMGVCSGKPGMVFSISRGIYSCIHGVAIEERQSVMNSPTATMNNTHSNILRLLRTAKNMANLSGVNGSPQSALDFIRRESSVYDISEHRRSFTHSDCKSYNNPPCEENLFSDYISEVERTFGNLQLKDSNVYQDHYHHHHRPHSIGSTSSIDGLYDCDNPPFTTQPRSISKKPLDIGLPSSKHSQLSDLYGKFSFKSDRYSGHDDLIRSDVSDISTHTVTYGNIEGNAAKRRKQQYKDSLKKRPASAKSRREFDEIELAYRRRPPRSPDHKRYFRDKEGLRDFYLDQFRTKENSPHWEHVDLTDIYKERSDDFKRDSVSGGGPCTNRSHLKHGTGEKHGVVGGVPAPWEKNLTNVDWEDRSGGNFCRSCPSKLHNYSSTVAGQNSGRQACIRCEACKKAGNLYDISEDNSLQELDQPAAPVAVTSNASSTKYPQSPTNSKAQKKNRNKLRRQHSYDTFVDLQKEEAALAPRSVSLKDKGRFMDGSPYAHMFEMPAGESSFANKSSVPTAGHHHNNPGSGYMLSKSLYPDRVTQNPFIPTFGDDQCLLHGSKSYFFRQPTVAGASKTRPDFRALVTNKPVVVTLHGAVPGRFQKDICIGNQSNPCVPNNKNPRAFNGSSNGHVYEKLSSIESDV

Compound: COC(=O)c1ccc(C2C(C(=O)c3cccnc3)=C(O)C(=O)N2CCCc2c[nH]c3ccccc23)cc1 (centres unmarked) [Compound 122, Methyl 4-(1-(3-(1H-Indol-3-yl)propyl)-4-hydroxy-3-nicotinoyl-5-oxo-2,5-dihydro-1H-pyrrol-2-yl)benzoate]
- activity at GluN2C-containing receptors [1]: eliminated all activity

Compound: COC(=O)c1ccccc1C1C(C(C)=O)=C(O)C(=O)N1CCc1c[nH]c2ccccc12 (centres unmarked) [Compound 82, Methyl 2-(1-(2-(1H-Indol-3-yl)ethyl)-3-acetyl-4-hydroxy-5-oxo-2,5-dihydro-1H-pyrrol-2-yl)benzoate]
- activity at GluN2C-containing receptors [1]: inactive

Compound: Methyl 4-(4-Hydroxy-1-(2-(1-methyl-1H-Indol-3-yl)ethyl)-3-nicotinoyl-5-oxo-2,5-dihydro-1H-pyrrol-2-yl)benzoate [Compound 105]
- activity at GluN2C-containing receptors [1]: inactivity

Compound: COC(=O)c1ccc(C2C(C(=O)c3cccnc3)=C(O)C(=O)N2CCc2coc3ccccc23)cc1 (centres unmarked) [Compound 163, Methyl 4-(1-(2-(Benzofuran-3-yl)ethyl)-4-hydroxy-3-nicotinoyl-5-oxo-2,5-dihydro-1H-pyrrol-2-yl)benzoate]
- activity at GluN2C-containing receptors [1]: weak activity

Compound: COC(=O)c1ccc(C2C(C(C)=O)=C(OC(C)=O)C(=O)N2CCc2c[nH]c3ccccc23)cc1 (centres unmarked) [Compound 158, Methyl 4-(1-(2-(1H-Indol-3-yl)ethyl)-4-acetoxy-3-acetyl-5-oxo-2,5-dihydro-1H-pyrrol-2-yl)benzoate]
- decrease in potency ([1]; GluN1/GluN2C EC50): 2 fold

Compound: CCOC(=O)c1ccc(C2C(C(C)=O)=C(O)C(=O)N2CCc2c(C)[nH]c3ccccc23)cc1 (centres unmarked) [Compound 119, Ethyl 4-(3-Acetyl-4-hydroxy-1-(2-(2-methyl-1H-indol-3-yl)ethyl)-5-oxo-2,5-dihydro-1H-pyrrol-2-yl)benzoate]
- potency enhancement ([1]; GluN1/GluN2C EC50): 2 fold

Compound: COC(=O)c1ccc(C2C(C(=O)c3ccncc3)=C(O)C(=O)N2Cc2c[nH]c3ccccc23)cc1 (centres unmarked) [Compound 121, Methyl 4-(1-((1H-Indol-3-yl)methyl)-4-hydroxy-3-isonicotinoyl-5-oxo-2,5-dihydro-1H-pyrrol-2-yl)benzoate]
- activity at GluN2C-containing receptors [1]: eliminated all activity

Compound: COC(=O)c1ccc(C2C(C(C)=O)=C(N)C(=O)N2CCc2c[nH]c3ccccc23)cc1 (centres unmarked) [Compound 157, Methyl 4-(1-(2-(1H-Indol-3-yl)ethyl)-3-acetyl-4-amino-5-oxo-2,5-dihydro-1H-pyrrol-2-yl)benzoate]
- activity at GluN2C-containing receptors [1]: complete loss of potentiation

Compound: CNS(=O)(=O)c1ccc(C2C(C(=O)c3cccnc3)=C(O)C(=O)N2CCc2c[nH]c3ccccc23)cc1 (centres unmarked) [Compound 93, 4-(1-(2-(1H-Indol-3-yl)ethyl)-4-hydroxy-3-nicotinoyl-5-oxo-2,5-dihydro-3-nicotinoyl-5-oxo-2,5-dihydro-1H-pyrrol-2-yl)-N-methylbenzenesulfonamide]
- activity at GluN2C-containing receptors [1]: none of these analogues exhibited any activity

Compound: COC(=O)c1ccc(C2C(C(=O)c3ccncc3)=C(O)C(=O)N2CCn2cnc3ccccc32)cc1 (centres unmarked) [Compound 164, Methyl 4-(1-(2-(1H-Benzo[d]imidazol-1-yl)ethyl)-4-hydroxy-3-isonicotinoyl-5-oxo-2,5-dihydro-1H-pyrrol-2-yl)benzoate]
- activity at GluN2C-containing receptors [1]: complete inactivity

Compound: COC(=O)c1ccc(C2C(C(=O)C(C)C)=C(O)C(=O)N2CCc2c[nH]c3ccccc23)cc1 (centres unmarked) [Compound 63, Methyl 4-(1-(2-(1H-Indol-3-yl)ethyl)-4-hydroxy-3-isobutyryl-5-oxo-2,5-dihydro-1H-pyrrol-2-yl)benzoate]
- remaining activity at 100 µM ([2]; read-out: GluN1/GluN2C response to 100 μM of test compound, % of control): > 140%

Compound: COC(=O)c1cccc(C2C(C(C)=O)=C(O)C(=O)N2CCc2c[nH]c3ccccc23)c1 (centres unmarked) [Compound 81]
- activity at GluN2C-containing receptors [1]: inactive

Compound: N#Cc1ccc(C2C(C(=O)c3cccnc3)=C(O)C(=O)N2CCc2c[nH]c3ccccc23)cc1 (centres unmarked) [Compound 87, 4-(1-(2-(1H-Indol-3-yl)ethyl)-4-hydroxy-3-nicotinoyl-5-oxo-2,5-dihydro-1H-pyrrol-2-yl)benzonitrile]
- activity at GluN2C-containing receptors [1]: none of these analogues exhibited any activity

Compound: CC(=O)C1=C(O)C(=O)N(CCc2c[nH]c3ccccc23)C1c1ccc(C(=O)OC(C)(C)C)cc1 (centres unmarked) [Compound 86, tert-Butyl 4-(1-(2-(1H-Indol-3-yl)ethyl)-3-acetyl-4-hydroxy-5-oxo-2,5-dihydro-1H-pyrrol-2-yl) benzoate]
- activity at GluN2C-containing receptors [1]: inactivity

Compound: COC(=O)c1ccc(C2C(C(C)=O)=C(O)C(=O)N2CCc2c(C)[nH]c3ccccc23)cc1 (centres unmarked) [Compound 106b]
- activity at GluN2C-containing receptors [1]: no activity
- activity at GluN2D-containing receptors [3]: inactive
- activity at GluN2B-containing receptors [4]: inactive
- activity at GluN2A-containing receptors [5]: inactive

Compound: COC(=O)c1ccc(C2C(C(=O)c3ccccn3)=C(O)C(=O)N2CCc2c[nH]c3ccccc23)cc1 (centres unmarked) [Compound 71, Methyl 4-(1-(2-(1H-Indol-3-yl)ethyl)-4-hydroxy-5-oxo-3-picolinoyl-2,5-dihydro-1H-pyrrol-2-yl)benzoate]
- activity at GluN2C-containing receptors [1]: inactive
- activity at GluN2D-containing receptors [3]: inactive
- activity at GluN2B-containing receptors [4]: inactive
- activity at GluN2A-containing receptors [5]: inactive

Compound: COC(=O)c1ccc(C2C(C(=O)c3ccncc3)=C(O)C(=O)N2CCc2cccc3ccccc23)cc1 (centres unmarked) [Compound 162, Methyl 4-(4-Hydroxy-3-isonicotinoyl-1-(2-(naphthalen-1-yl)ethyl)-5-oxo-2,5-dihydro-1H-pyrrol-2-yl)benzoate]
- activity at GluN2C-containing receptors [1]: strong inhibition
- activity at GluN2D-containing receptors [3]: strong inhibition
- activity at GluN2B-containing receptors [4]: strong inhibition
- activity at GluN2A-containing receptors [5]: strong inhibition

Compound: CC(=O)C1=C(O)C(=O)N(CCc2c[nH]c3ccccc23)C1c1ccc(C(=O)OC(C)C)cc1 (centres unmarked) [Compound 85, Isopropyl 4-(1-(2-(1H-Indol-3-yl)ethyl)-3-acetyl-4-hydroxy-5-oxo-2,5-dihydro-1H-pyrrol-2-yl)benzoate]
- activity at GluN2C-containing receptors [1]: inactivity

Compound: COC(=O)c1ccc(C2C(C(C)=O)=C(O)C(=O)N2CCc2c(C)[nH]c3ccccc23)cc1 (centres unmarked) [Compound 106a]
- EC50 [2]: 18 ± 0.6 µM
- activity at GluN2D-containing receptors [3]: weak inhibition
- activity at GluN2B-containing receptors [4]: no effect
- activity at GluN2A-containing receptors [5]: no effect

Compound: COC(=O)c1ccc(C2C(C(=O)c3ccncc3)=C(O)C(=O)N2CCc2c[nH]cn2)cc1 (centres unmarked) [Compound 165, Methyl 4-(1-(2-(1H-Imidazol-4-yl)ethyl)-4-hydroxy-3-isonicotinoyl-5-oxo-2,5-dihydro-1H-pyrrol-2-yl)benzoate]
- activity at GluN2C-containing receptors [1]: complete inactivity

Compound: NS(=O)(=O)c1ccc(C2C(C(=O)c3cccnc3)=C(O)C(=O)N2CCc2c[nH]c3ccccc23)cc1 (centres unmarked) [Compound 92, 4-(1-(2-(1H-Indol-3-yl)ethyl)-4-hydroxy-3-nicotinoyl-5-oxo-2,5,-dihydro-1H-pyrrol-2-yl)benzenesulfonamide]
- activity at GluN2C-containing receptors [1]: none of these analogues exhibited any activity

Compound: COC(=O)c1ccc(C2C(C(C)=O)=C(O)C(=O)N2CCc2c[nH]c3ccccc23)cc1 (centres unmarked) [Compound 1, Methyl 4-(1-(2-(1H-Indol-3-yl)ethyl)-3-acetyl-4-hydroxy-5-oxo-2,5-dihydro-1H-pyrrol-2-yl)benzoate]
- agonist activity on its own ([1]; in the absence of glutamate and glycine): no agonist activity
- activity at GluN2D-containing receptors [3]: did not show any activity
- activity at GluN2B-containing receptors [4]: did not show any activity
- activity at GluN2A-containing receptors [5]: did not show any activity

Compound: CC(=O)C1=C(O)C(=O)N(CCc2c[nH]c3ccccc23)C1c1ccc([N+](=O)[O-])cc1 (centres unmarked) [Compound 88, 1-(2-(1H-Indol-3-yl)ethyl)-4-acetyl-3-hydroxy-5-(4-nitrophenyl)-1H-pyrrol-2(5H)-one]
- activity at GluN2C-containing receptors [1]: none of these analogues exhibited any activity
